We go through 29 molecules from patent US10377717B2, “Farnesoid X receptor agonists and uses thereof” (Metacrine, Inc., priority 2015, dated 2019).

For this test, the target named is hFXR (Homo sapiens (Human), UniProt Q96RI1). As to the kind of experiment: In Vitro FXR Assay (TK), luciferase reporter in transfected CV-1 cells. The test is classed as cell-based. Conditions: TK-ECRE-luc reporter, hFXR/hRXR, 18 hrs, maximum efficacy <25% of Fexaramine control classified as '+'. The method in brief: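 CV-1, transient co-transfection: hFXR + hRXR + TK-ECRE-luc + pCMX-YFP; charcoal-stripped serum. 18 h post-transfection, DMSO serial dilutions of cpd added; 18 h incubation; lysis, luminescence.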
hFXR, sequence (Q96RI1 whole entry): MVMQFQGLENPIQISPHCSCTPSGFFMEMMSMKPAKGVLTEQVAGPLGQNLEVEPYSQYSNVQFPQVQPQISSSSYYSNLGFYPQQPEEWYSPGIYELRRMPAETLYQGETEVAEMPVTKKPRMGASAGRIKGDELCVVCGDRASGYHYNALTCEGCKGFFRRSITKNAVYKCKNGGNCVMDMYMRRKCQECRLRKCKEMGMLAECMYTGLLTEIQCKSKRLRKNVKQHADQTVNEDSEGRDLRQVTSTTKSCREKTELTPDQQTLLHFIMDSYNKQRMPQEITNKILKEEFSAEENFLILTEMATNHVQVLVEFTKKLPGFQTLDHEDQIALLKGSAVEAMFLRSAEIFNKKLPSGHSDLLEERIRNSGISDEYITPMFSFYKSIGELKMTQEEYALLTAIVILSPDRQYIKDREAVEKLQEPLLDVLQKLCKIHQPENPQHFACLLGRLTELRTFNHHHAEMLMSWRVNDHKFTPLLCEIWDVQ
hFXR, sequence (P19793 whole entry partner): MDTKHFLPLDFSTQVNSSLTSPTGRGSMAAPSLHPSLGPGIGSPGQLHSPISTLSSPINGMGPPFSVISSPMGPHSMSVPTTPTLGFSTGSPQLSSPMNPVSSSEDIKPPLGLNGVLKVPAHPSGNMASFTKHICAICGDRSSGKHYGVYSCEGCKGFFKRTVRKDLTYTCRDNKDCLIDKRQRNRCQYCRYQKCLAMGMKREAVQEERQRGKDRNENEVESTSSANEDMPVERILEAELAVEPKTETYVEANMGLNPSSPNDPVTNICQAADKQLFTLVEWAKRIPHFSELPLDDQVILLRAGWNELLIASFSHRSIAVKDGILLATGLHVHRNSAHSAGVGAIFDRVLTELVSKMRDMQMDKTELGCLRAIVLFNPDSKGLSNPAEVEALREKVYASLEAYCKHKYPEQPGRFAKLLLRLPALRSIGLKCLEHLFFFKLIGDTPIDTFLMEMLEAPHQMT
(Reporter assays use an easily measured gene product as a stand-in for the process of interest.)
By EC50 is commonly meant the concentration needed to bring the measured effect to its halfway point. `COC(=O)c1ccc2c(N(C[C@H]3CC[C@H](c4cccc(C)c4)CC3)C(=O)CC(C)(C)C)nccc2c1` [Compound 90, Methyl 1-(3,3-dimethyl-N-((trans-4-(m-tolyl)cyclohexyl)methyl)butanamido)isoquinoline-6-carboxylate]: the half-maximal effective concentration (EC50) is not above 1 µM.

The molecule `COC(=O)c1cc(N(Cc2ccc(-c3ccc(N(C)C)cc3)cc2)C(=O)C2CCCCC2)c2ccccc2c1` [Compound 16, Methyl 4-(N-((4′-(dimethylamino)-[1,1′-biphenyl]-4-yl)methyl)cyclohexanecarboxamido)-2-naphthoate] registered an EC50 not below 10 µM.

Regarding `COCc1ccc(-c2ccc(CN(C(=O)CC(C)(C)C)c3nccc4cc(C(=O)OC)ccc34)cc2)cc1` [Compound 58, Methyl 1-(N-((4′-(methoxymethyl)-[1,1′-biphenyl]-4-yl)methyl)-3,3-dimethylbutanamido)isoquinoline-6-carboxylate], the EC50 is not above 1 µM.

`COc1ccc(-c2ccc(CN(C(=O)C3CCCCC3)c3nccc4cc(C(=O)OC(C)C)ccc34)cc2)cc1C` [Compound 22, Isopropyl 1-(N-((4′-methoxy-3′-methyl-[1,1′-biphenyl]-4-yl)methyl)cyclohexanecarboxamido) isoquinoline-6-carboxylate] registered a 50% effective concentration (EC50) not above 1 µM.

For `COC(=O)c1ccc2c(N(Cc3ccc(-c4ccc(CO)cc4)cc3)C(=O)CC(C)(C)C)nccc2c1` [Compound 43, Methyl 1-(N-((4′-(hydroxymethyl)-[1,1′-biphenyl]-4-yl)methyl)-3,3-dimethylbutanamido)isoquinoline-6-carboxylate], the concentration for a half-maximal effect (EC50) fell in the range of 1 to 10 µM.

For the molecule `COC(=O)c1ccc2c(N(Cc3ccc(-c4ccc(F)c(OC)c4)cc3)C(=O)CC(C)(C)C)nccc2c1` [Compound 54, Methyl 1-(N-((4′-fluoro-3′-methoxy-[1,1′-biphenyl]-4-yl)methyl)-3,3-dimethylbutanamido)isoquinoline-6-carboxylate], the concentration for a half-maximal effect (EC50) is 1 to 10 µM.

`COC(=O)c1cc2c(N(Cc3ccc(-c4ccc(N(C)C)cc4)cc3)C(=O)C3CCCCC3)cccc2[nH]1` [Compound 11, Methyl 4-(N-((4′-(dimethylamino)-[1,1′-biphenyl]-4-yl)methyl)cyclohexanecarboxamido)-1H-indole-2-carboxylate] had a concentration for a half-maximal effect (EC50) not below 10 µM.

`COC(=O)c1ccc2c(N(Cc3ccc(-c4ccc(OC)c(C)c4)cc3)C(=O)CCO)nccc2c1` [Compound 84, Methyl 1-(3-hydroxy-N-((4′-methoxy-3′-methyl-[1,1′-biphenyl]-4-yl)methyl)propanamido) isoquinoline-6-carboxylate] came in with an EC50 not below 10 µM.

For `COC(=O)c1ccc2c(N(Cc3ccc(-c4ccc(C)c(Cl)c4)cc3)C(=O)CC(C)(C)C)nccc2c1` [Compound 55, Methyl 1-(N-((3′-chloro-4′-methyl-[1,1′-biphenyl]-4-yl)methyl)-3,3-dimethylbutanamido)isoquinoline-6-carboxylate], the half-maximal effective concentration (EC50) is not above 1 µM.

`COc1ccc(-c2ccc(CN(C(=O)CC(C)(C)C)c3nccc4cc(C(=O)OC(C)C)ccc34)cc2)cc1C#N` [Compound 68, Isopropyl 1-(N-((3′-cyano-4′-methoxy-[1,1′-biphenyl]-4-yl)methyl)-3,3-dimethylbutanamido) isoquinoline-6-carboxylate]: the EC50 was not above 1 µM.

Take `COC(=O)c1ccc2c(N(Cc3ccc(-c4ccc(OC)c(C)c4)c(C#N)c3)C(=O)CC(C)(C)C)nccc2c1` [Compound 26, Methyl 1-(N-((2-cyano-4′-methoxy-3′-methyl-[1,1′-biphenyl]-4-yl)methyl)-3,3-dimethylbutanamido)isoquinoline-6-carboxylate]: the EC50 is not above 1 µM.

Regarding `COC(=O)c1ccc2c(N(Cc3ccc(-c4ccc(CCO)cc4)cc3)C(=O)CC(C)(C)C)nccc2c1` [Compound 61, Methyl 1-(N-((4′-(2-hydroxyethyl)-[1,1′-biphenyl]-4-yl)methyl)-3,3-dimethylbutanamido)isoquinoline-6-carboxylate], the half-maximal effective concentration (EC50) is not above 1 µM.

Turning to `COC(=O)c1ccc2c(N(Cc3ccc(-c4ccc(OC)c(C)c4)cc3)C(=O)C(C)C)nccc2c1` [Compound 28, Methyl 1-(N-((4′-methoxy-3′-methyl-[1,1′-biphenyl]-4-yl)methyl)isobutyramido) isoquinoline-6-carboxylate], the EC50 is not above 1 µM.

Molecule `COC(=O)c1ccc2c(N(Cc3ccc(-c4ccc(C#N)c(Cl)c4)cc3)C(=O)CC(C)(C)C)nccc2c1` [Compound 31, Methyl 1-(N-((3′-chloro-4′-cyano-[1,1′-biphenyl]-4-yl)methyl)-3,3-dimethylbutanamido)isoquinoline-6-carboxylate] returned an EC50 not above 1 µM.

Molecule `COC(=O)c1ccc2c(N(Cc3ccc(-c4ccc(OC)c(C)c4)cc3)C(=O)CC3COC3)nccc2c1` [Compound 83, Methyl 1-(N-((4′-methoxy-3′-methyl-[1,1′-biphenyl]-4-yl)methyl)-2-(oxetan-3-yl)acetamido)isoquinoline-6-carboxylate] showed a concentration for a half-maximal effect (EC50) of 1 to 10 µM.

Regarding `COc1ccc(-c2ccc(CN(C(=O)CC(C)(C)C)c3nccc4cc(/C=C/C(=O)O)ccc34)cc2)cc1C` [Compound 103, (E)-3-(1-(N-((4′-Methoxy-3′-methyl-[1,1′-biphenyl]-4-yl)methyl)-3,3-dimethylbutanamido)isoquinolin-6-yl)acrylic Acid], the EC50 lay in the range of 1 to 10 µM.

For the molecule `CCCCC(=O)N(Cc1ccc(-c2ccc(OC)c(C)c2)cc1)c1nccc2cc(C(=O)OC)ccc12` [Compound 81, Methyl 1-(N-((4′-methoxy-3′-methyl-[1,1′-biphenyl]-4-yl)methyl)pentanamido) isoquinoline-6-carboxylate], the EC50 was not above 1 µM.

For `COC(=O)c1ccc2c(N(Cc3ccc(-c4ccc(OC)cc4)cc3)C(=O)CC(C)(C)C)nccc2c1` [Compound 45, Methyl 1-(N′-((4′-methoxy-[1,1′-biphenyl]-4-yl)methyl)-3,3-dimethylbutanamido)isoquinoline-6-carboxylate], the EC50 was not above 1 µM.

On to `COC(=O)c1ccc2c(N(Cc3ccc(-c4ccc(OC(F)F)cc4)cc3)C(=O)CC(C)(C)C)nccc2c1` [Compound 57, Methyl 1-(N-((4′-(difluoromethoxy)-[1,1′-biphenyl]-4-yl)methyl)-3,3-dirnethylbutanamido)isoquinoline-6-carboxylate], for which the concentration for a half-maximal effect (EC50) lay within 1 to 10 µM.

The molecule `COC(=O)c1ccc2c(N(Cc3ccc(-c4ccc5c(c4)CCN5C(=O)OC(C)(C)C)cc3)C(=O)CC(C)(C)C)nccc2c1` [Compound 51, Methyl 1-(N-(4-(1-(tert-butoxycarbonyl)indolin-5-yl)benzyl)-3,3-dimethylbutanamido)isoquinoline-6-carboxylate] had an EC50 not below 10 µM.

In the case of `COC(=O)c1ccc2c(N(Cc3ccc(-c4ccc(OC)c(C)c4)cc3)C(=O)CC(C)(C)C)nccc2c1` [Compound 19, Methyl 1-(N-((4′-methoxy-3′-methyl-[1,1′-biphenyl]-4-yl)methyl)-3,3-dimethylbutanamido)isoquinoline-6-carboxylate], the half-maximal effective concentration (EC50) is not above 1 µM.

Molecule `COC(=O)c1ccc2c(N(C[C@H]3CC[C@H](c4ccc(OC)c(C)c4)CC3)C(=O)[C@H]3CC[C@H](O)CC3)nccc2c1` [Compound 99, Methyl 1-(trans-4-hydroxy-N-((trans-4-(4-methoxy-3-methylphenyl)cyclohexyl)methyl)cyclohexanecarboxamido) isoquinoline-6-carboxylate] returned an EC50 not above 1 µM.

In the case of `COC(=O)c1ccc2c(N(Cc3ccc(-c4ccc(OC)c(C)c4)cc3)C(=O)CCCOCc3ccccc3)nccc2c1` [Compound 78, Methyl 1-(4-(benzyloxy)-N-((4′-methoxy-3′-methyl-[1,1′-biphenyl]-4-yl)methyl)butanamido)isoquinoline-6-carboxylate], the 50% effective concentration (EC50) is not below 10 µM.

Take `COC(=O)c1ccc2c(N(Cc3ccc(-c4ccc(OC)c(C)c4)cc3)C(=O)CCC(C)(C)C)nccc2c1` [Compound 76, Methyl 1-(N-((4′-methoxy-3′-methyl-[1,1′-biphenyl]-4-yl)methyl)-4,4-dimethylpentanamido)isoquinoline-6-carboxylate]: the EC50 was not above 1 µM.

In turn, `COC(=O)c1ccc2c(N(C[C@H]3CC[C@H](c4ccc(OC)c(C)c4)CC3)C(=O)CC(C)(C)C)nccc2c1` [Compound 96, Methyl 1-(N-((trans-4-(4-methoxy-3-methylphenyl)cyclohexyl)methyl)-3,3-dimethylbutanamido)isoquinoline-6-carboxylate] registered a concentration for a half-maximal effect (EC50) not above 1 µM.

Molecule `COCCc1ccc(-c2ccc(CN(C(=O)CC(C)(C)C)c3nccc4cc(C(=O)OC)ccc34)cc2)cc1` [Compound 62, Methyl 1-(N-((4′-(2-methoxyethyl)-[1,1′-biphenyl]-4-yl)methyl)-3,3-dimethylbutanamido)isoquinoline-6-carboxylate] had a 50% effective concentration (EC50) not above 1 µM.

Turning to `COC(=O)/C=C/c1ccnc(N(C[C@H]2CC[C@H](c3ccc(OC)c(C)c3)CC2)C(=O)C2CCCCC2)c1` [Compound 18, (E)-Methyl 3-(2-(N-((trans-4-(4-methoxy-3-methylphenyl)cyclohexyl)methyl)cyclohexanecarboxamido)pyridin-4-yl)acrylate], the EC50 is not above 1 µM.

In turn, `COC(=O)c1ccc2c(N(Cc3ccc(-c4ccc(C5CC5)cc4)cc3)C(=O)CC(C)(C)C)nccc2c1` [Compound 40, Methyl 1-(N-((4′-cyclopropyl-[1,1′-biphenyl]-4-yl)methyl)-3,3-dimethylbutanamido)isoquinoline-6-carboxylate] displayed an EC50 not above 1 µM.

With `COC(=O)c1ccc2c(N(Cc3ccc(-c4ccc(C)c(C#N)c4)cc3)C(=O)CC(C)(C)C)nccc2c1` [Compound 30, Methyl 1-(N-((3′-cyano-4′-methyl-[1,1′-biphenyl]-4-yl)methyl)-3,3-dimethylbutanamido)isoquinoline-6-carboxylate], the EC50 is not above 1 µM.
